In patent publication US20260325561A1, “4'-SUBSTITUTED NUCLEOSIDES AND NUCLEOTIDES AS ANTIVIRAL AGENTS” (THE SCRIPPS RESEARCH INSTITUTE, priority 2023, published 2026):

Columns and labels:
[1] = system: DENV-2; experiment: microbe, parasite or virus in culture; type: cell-based, DENV-2 16681; conditions: Dengue virus, DENV2, HepG2, 24 h, read-out: DENV-2 / HepG2 EC50
[2] = in vitro; conditions: human, h1 hela cells
[3] = in vitro; conditions: human, hep2 cells
[4] = system: SARS-CoV-2; experiment: microbe, parasite or virus in culture; type: cell-based, SARS-CoV-2 strain USA-WA1/2020; conditions: Severe acute respiratory syndrome coronavirus 2, HeLa-ACE2, 24 h, read-out: SARS-CoV-2 / HeLa-ACE2 EC50
[5] = in vitro; conditions: human, hepg2 cells
[6] = system: RSV A2; experiment: microbe, parasite or virus in culture; type: cell-based; conditions: human respiratory syncytial virus, HEp-2, 72 h, read-out: RSV A2 / Hep2 EC50
[7] = in vitro; conditions: human, hela-ace2 cells
[8] = system: YFV; experiment: microbe, parasite or virus in culture; type: cell-based, YFV strain 17D; conditions: Yellow fever virus, HepG2, 24 h, read-out: YFV / HepG2 EC50
[9] = system: HRV 14; experiment: microbe, parasite or virus in culture; type: cell-based, Human Rhinovirus 14 strain 1059; conditions: Rhinovirus B, H1-HeLa, 48 h, read-out: HRV / H1 HeLa B 14 EC50
[10] = system: ZIKV; experiment: microbe, parasite or virus in culture; type: cell-based, ZIKV MR766; conditions: Zika virus, HepG2, 24 h, read-out: ZIKV / HepG2 EC50
[11] = Cytotoxicity, HFF; type: cell-based; conditions: human, hff cells; read-out: HCMV/HFF CC50
[12] = system: HCoV-OC43; experiment: microbe, parasite or virus in culture; type: cell-based, Human Coronavirus; conditions: Betacoronavirus 1, OC43, HCT-8, 48 h, read-out: HCoV-OC43/HCT-8 EC50
[13] = in vitro; conditions: human, mrc5 cells
[14] = system: CHIKV; experiment: microbe, parasite or virus in culture; type: cell-based, CHIKV strain 181/25; conditions: Chikungunya virus, HepG2, 24 h, read-out: CHIKV / HepG2 EC50
[15] = system: HRV 16; experiment: microbe, parasite or virus in culture; type: cell-based, Human Rhinovirus 16 strain 11757; conditions: Rhinovirus A, H1-HeLa, 48 h, read-out: HRV / H1 HeLa A16 EC50
[16] = in vitro; conditions: human, hct-8 cells
[17] = system: HCoV-229E; experiment: microbe, parasite or virus in culture; type: cell-based; conditions: Human coronavirus 229E, MRC5, 120 h, read-out: HCoV-229E/MRC5 EC50
[18] = system: HCMV; experiment: HCMV/HFF antiviral assay; type: cell-based; conditions: Human betaherpesvirus 5, HFF

OC[C@]1(F)O[C@@H](n2ccc3c(Cl)ncnc32)[C@H](O)[C@@H]1O [Example 5, (2R,3S,4R,5R)-5-(4-chloro-7H-pyrrolo[2,3-d]pyrimidin-7-yl)-2-fluoro-2-(hydroxymethyl)tetrahydrofuran-3,4-diol]
EC50 [1]: 100 to 1000 nM
CC50 [2]: > 99 µM
CC50 [3]: > 99 µM
EC50 [4]: > 10 µM
CC50 at 72 h [5]: > 99 µM
EC50 [6]: > 10 µM
CC50 at 24 h [7]: > 99 µM
EC50 [8]: 1 to 10 µM
EC50 [9]: 1 to 10 µM
EC50 [10]: 1 to 10 µM

OC[C@@]1(F)O[C@@H](n2ccc3c(F)ncnc32)[C@H](O)[C@@H]1O [Example 13, (2S,3S,4R,5R)-2-fluoro-5-(4-fluoro-7H-pyrrolo[2,3-d]pyrimidin-7-yl)-2-(hydroxymethyl)tetrahydrofuran-3,4-diol]
CC50 [11]: 10 to 99 µM
EC50 [12]: 1000 to 10000 nM
CC50 [13]: > 99 µM
EC50 [14]: 100 to 1000 nM
EC50 [1]: < 100 nM
CC50 [2]: 10 to 99 µM
EC50 [15]: 0.1 to 1 µM
CC50 [3]: 10 to 99 µM
CC50 [16]: 10 to 99 µM
EC50 [17]: > 10 µM
EC50 [4]: 0.1 to 1 µM
CC50 at 72 h [5]: 1 to 10 µM
EC50 [6]: 0.1 to 1 µM
CC50 at 24 h [7]: 10 to 99 µM
EC50 [18]: > 10000 nM
EC50 [9]: 1 to 10 µM

NC(=O)c1cn([C@@H]2O[C@](F)(CO)[C@@H](O)[C@H]2O)c2ncnc(N)c12 [Example 14, 4-amino-7-((2R,3R,4S,5S)-5-fluoro-3,4-dihydroxy-5-(hydroxymethyl)tetrahydrofuran-2-yl)-7H-pyrrolo[2,3-d]pyrimidine-5-carboxamide]
CC50 [11]: 1 to 10 µM
EC50 [12]: 100 to 1000 nM
CC50 [13]: 1 to 10 µM
EC50 [1]: < 100 nM
CC50 [2]: 1 to 10 µM
EC50 [15]: > 10 µM
CC50 [3]: 1 to 10 µM
CC50 [16]: 1 to 10 µM
EC50 [17]: > 10 µM
EC50 [4]: 0.1 to 1 µM
CC50 at 72 h [5]: < 1 µM
EC50 [6]: < 0.1 µM
CC50 at 24 h [7]: < 1 µM
EC50 [18]: 100 to 1000 nM
EC50 [9]: > 10 µM

Nc1ncnc2c1c(F)cn2[C@@H]1O[C@](F)(CO)[C@@H](O)[C@H]1O [Example 15, (2S,3S,4R,5R)-5-(4-amino-5-fluoro-7H-pyrrolo[2,3-d]pyrimidin-7-yl)-2-fluoro-2-(hydroxymethyl)tetrahydrofuran-3,4-diol]
CC50 [11]: 1 to 10 µM
EC50 [12]: < 100 nM
CC50 [13]: 1 to 10 µM
EC50 [1]: < 100 nM
CC50 [2]: < 1 µM
EC50 [15]: < 0.1 µM
CC50 [3]: 1 to 10 µM
CC50 [16]: < 1 µM
EC50 [17]: 0.1 to 1 µM
EC50 [4]: < 0.1 µM
CC50 at 72 h [5]: < 1 µM
EC50 [6]: > 10 µM
CC50 at 24 h [7]: < 1 µM
EC50 [18]: 1000 to 10000 nM
EC50 [9]: > 10 µM

Nc1ncnc2c1ccn2[C@@H]1O[C@@](CO)(CF)[C@@H](O)[C@H]1O [Example 20, (2R,3S,4R,5R)-5-(4-amino-7H-pyrrolo[2,3-d]pyrimidin-7-yl)-2-(fluoromethyl)-2-(hydroxymethyl)tetrahydrofuran-3,4-diol]
CC50 [11]: > 99 µM
EC50 [14]: > 10000 nM
EC50 [1]: > 10000 nM
CC50 [2]: > 99 µM
EC50 [15]: > 10 µM
CC50 [3]: 10 to 99 µM
EC50 [4]: > 10 µM
CC50 at 72 h [5]: > 99 µM
EC50 [6]: > 10 µM
CC50 at 24 h [7]: 10 to 99 µM
EC50 [18]: > 10000 nM
EC50 [9]: > 10 µM

O=c1[nH]cnc2c1c(F)cn2[C@@H]1O[C@](F)(CO)[C@@H](O)[C@H]1O [Example 21, 5-fluoro-7-((2R,3R,4S,5S)-5-fluoro-3,4-dihydroxy-5-(hydroxymethyl)tetrahydrofuran-2-yl)-3,7-dihydro-4H-pyrrolo[2,3-d]pyrimidin-4-one]
EC50 [12]: > 10000 nM
CC50 [13]: > 99 µM
EC50 [1]: > 10000 nM
CC50 [2]: > 99 µM
EC50 [15]: > 10 µM
CC50 [3]: > 99 µM
CC50 [16]: > 99 µM
EC50 [17]: > 10 µM
EC50 [4]: > 10 µM
CC50 at 72 h [5]: > 99 µM
EC50 [6]: > 10 µM
CC50 at 24 h [7]: > 99 µM
EC50 [8]: > 10 µM
EC50 [9]: > 10 µM
EC50 [10]: > 10 µM

COc1ncnc2c1c(F)cn2[C@@H]1O[C@](F)(CO)[C@@H](O)[C@H]1O [Example 22, (2S,3S,4R,5R)-2-fluoro-5-(5-fluoro-4-methoxy-7H-pyrrolo[2,3-d]pyrimidin-7-yl)-2-(hydroxymethyl)tetrahydrofuran-3,4-diol]
CC50 [11]: > 99 µM
EC50 [1]: 100 to 1000 nM
CC50 [2]: 10 to 99 µM
EC50 [15]: > 10 µM
CC50 [3]: 10 to 99 µM
EC50 [4]: 1 to 10 µM
CC50 at 72 h [5]: 1 to 10 µM
EC50 [6]: > 10 µM
CC50 at 24 h [7]: 1 to 10 µM
EC50 [18]: 1000 to 10000 nM
EC50 [8]: 0.1 to 1 µM
EC50 [9]: > 10 µM
EC50 [10]: 1 to 10 µM

Nc1nc(F)nc2c1ncn2[C@@H]1O[C@](F)(CO)[C@@H](O)[C@H]1O [Example 31, (2S,3S,4R,5R)-5-(6-amino-2-fluoro-9H-purin-9-yl)-2-fluoro-2-(hydroxymethyl)tetrahydrofuran-3,4-diol]
EC50 [14]: 100 to 1000 nM
EC50 [1]: 100 to 1000 nM
CC50 [2]: 1 to 10 µM
EC50 [15]: > 10 µM
CC50 [3]: < 1 µM
EC50 [4]: 1 to 10 µM
CC50 at 72 h [5]: < 1 µM
EC50 [6]: > 10 µM
CC50 at 24 h [7]: 1 to 10 µM
EC50 [9]: > 10 µM

N#C[C@]1(CO)O[C@@H](n2ccc3c(N)ncnc32)[C@H](O)[C@@H]1O [Example 32, (3S,4R,5R)-5-(4-amino-7H-pyrrolo[2,3-d]pyrimidin-7-yl)-3,4-dihydroxy-2-(hydroxymethyl)tetrahydrofuran-2-carbonitrile]
EC50 [14]: > 10000 nM
EC50 [1]: > 10000 nM
CC50 [2]: > 99 µM
EC50 [15]: > 10 µM
CC50 [3]: > 99 µM
EC50 [4]: > 10 µM
CC50 at 72 h [5]: > 99 µM
EC50 [6]: > 10 µM
CC50 at 24 h [7]: > 99 µM
EC50 [9]: > 10 µM

Nc1ncnc2c1c(Cl)cn2[C@@H]1O[C@](F)(CO)[C@@H](O)[C@H]1O [Example 33, (2S,3S,4R,5R)-5-(4-amino-5-chloro-7H-pyrrolo[2,3-d]pyrimidin-7-yl)-2-fluoro-2-(hydroxymethyl)tetrahydrofuran-3,4-diol]
CC50 [11]: 10 to 99 µM
EC50 [12]: 100 to 1000 nM
CC50 [13]: 10 to 99 µM
EC50 [1]: < 100 nM
CC50 [2]: 1 to 10 µM
EC50 [15]: > 10 µM
CC50 [3]: 10 to 99 µM
CC50 [16]: < 1 µM
EC50 [17]: > 10 µM
EC50 [4]: < 0.1 µM
CC50 at 72 h [5]: < 1 µM
EC50 [6]: < 0.1 µM
CC50 at 24 h [7]: 1 to 10 µM
EC50 [18]: 100 to 1000 nM
EC50 [9]: > 10 µM

CNc1ncnc2c1c(F)cn2[C@@H]1O[C@](F)(CO)[C@@H](O)[C@H]1O [Example 35, (2S,3S,4R,5R)-2-fluoro-5-(5-fluoro-4-(methylamino)-7H-pyrrolo[2,3-d]pyrimidin-7-yl)-2-(hydroxymethyl)tetrahydrofuran-3,4-diol]
EC50 [1]: > 10000 nM
CC50 [2]: 10 to 99 µM
CC50 [3]: 10 to 99 µM
EC50 [4]: > 10 µM
CC50 at 72 h [5]: 10 to 99 µM
EC50 [6]: > 10 µM
CC50 at 24 h [7]: > 99 µM
EC50 [8]: 1 to 10 µM
EC50 [9]: > 10 µM
EC50 [10]: > 10 µM

Nc1nc2c(ncn2[C@H]2C[C@H](O)[C@@](F)(CO)O2)c(=O)[nH]1 [Example 40, 2-amino-9-((2R,4S,5S)-5-fluoro-4-hydroxy-5-(hydroxymethyl)tetrahydrofuran-2-yl)-1,9-dihydro-6H-purin-6-one]
EC50 [1]: > 10000 nM
EC50 [4]: > 10 µM
CC50 at 72 h [5]: > 99 µM
CC50 at 24 h [7]: > 99 µM
EC50 [8]: > 10 µM
EC50 [10]: > 10 µM

CC(C)OC(=O)[C@H](C)N[P@](=O)(OC[C@@]1(F)O[C@@H](n2ccc3c(N)ncnc32)[C@H](O)[C@@H]1O)Oc1ccccc1 [Example 48, isopropyl ((S)-(((2S,3S,4R,5R)-5-(4-amino-7H-pyrrolo[2,3-d]pyrimidin-7-yl)-2-fluoro-3,4-dihydroxytetrahydrofuran-2-yl)methoxy)(phenoxy)phosphoryl)-L-alaninate]
EC50 [1]: 100 to 1000 nM
CC50 [2]: 10 to 99 µM
EC50 [15]: 1 to 10 µM
EC50 [4]: 1 to 10 µM
CC50 at 72 h [5]: 10 to 99 µM
CC50 at 24 h [7]: 10 to 99 µM
EC50 [8]: 1 to 10 µM
EC50 [9]: 1 to 10 µM
EC50 [10]: 1 to 10 µM
